In the NIST ThermoML archive (doi:10.1021/je700140j):

Assay: xn = mol fraction of the nth substance listed
Details: for surface tension liquid-gas: Ring tensiometer; for mass density / viscosity: 100.8 kPa, Liquid

OCc1ccccc1 [benzenemethanol] + CC(C)O
Details	mass density, 298.15 K [kg/m3]	mass density, 308.15 K [kg/m3]	mass density, 318.15 K [kg/m3]	surface tension liquid-gas, 298.15 K [mN/m]	surface tension liquid-gas, 308.15 K [mN/m]	surface tension liquid-gas, 318.15 K [mN/m]	viscosity, 298.15 K [mPa·s]	viscosity, 308.15 K [mPa·s]	viscosity, 318.15 K [mPa·s]
x2 = 0	1041.4	1033.6	1025.72	38.63	37.73	36.75	5.555	4.093	3.12
x2 = 0.05	1032.82	1025.02	1017.09	37.5	36.66	35.75	5.299	3.91	2.989
x2 = 0.1	1023.74	1015.91	1007.96	36.4	35.63	34.76	5.053	3.73	2.864
x2 = 0.15	1014.27	1006.4	998.38	35.35	34.6	33.77	4.799	3.558	2.745
x2 = 0.2	1004.39	996.5	988.43	34.3	33.59	32.78	4.559	3.389	2.628
x2 = 0.25	994.22	986.26	978.11	33.27	32.58	31.81	4.332	3.23	2.513
x2 = 0.3	983.63	975.59	967.39	32.27	31.58	30.83	4.116	3.076	2.4
x2 = 0.35	972.64	964.56	956.29	31.27	30.58	29.85	3.911	2.921	2.285
x2 = 0.4	961.2	953.08	944.75	30.3	29.6	28.9	3.714	2.772	2.172
x2 = 0.45	949.36	941.19	932.79	29.36	28.66	27.95	3.523	2.631	2.059
x2 = 0.5	937.02	928.79	920.32	28.45	27.75	27.05	3.335	2.49	1.953
x2 = 0.55	924.21	915.93	907.36	27.63	26.93	26.25	3.169	2.37	1.858
x2 = 0.6	910.83	902.49	893.86	26.83	26.15	25.48	3.01	2.256	1.769
x2 = 0.65	896.91	888.53	879.84	26.05	25.38	24.73	2.858	2.145	1.68
x2 = 0.7	882.44	874.02	865.32	25.28	24.61	23.98	2.715	2.042	1.594
x2 = 0.75	867.32	858.91	850.19	24.53	23.85	23.23	2.58	1.946	1.511
x2 = 0.8	851.54	843.1	834.29	23.78	23.1	22.48	2.46	1.851	1.434
x2 = 0.85	835.11	826.58	817.75	23.05	22.35	21.73	2.346	1.761	1.359
x2 = 0.9	817.95	809.39	800.5	22.33	21.6	20.96	2.251	1.675	1.295
x2 = 0.95	800	791.45	782.46	21.61	20.85	20.19	2.148	1.602	1.228
